From ChEMBL document CHEMBL3885881, “DrugMatrix”

Species on record: Rattus norvegicus
Test: DrugMatrix - Regimen: Daily Repeat
Assay type: toxicity, organism-based, Sprague-Dawley
Set-up: regimen Daily Repeat, gender Male, age 6-8 weeks
Conditions: in vivo, po, 17 mg/kg, route oral GAVAGE, dose level Low, vehicle 100 % SALINE; for ABSOLUTE BASOPHIL / ABSOLUTE EOSINOPHIL / ABSOLUTE LYMPHOCYTE / ABSOLUTE MONOCYTE / ABSOLUTE SEGMENTED NEUTROPHIL / BASOPHIL / EOSINOPHIL / ERYTHROCYTE COUNT / HEMATOCRIT / HEMOGLOBIN / LEUKOCYTE COUNT / LYMPHOCYTE / MEAN CORPUSCULAR HEMOGLOBIN / MEAN CORPUSCULAR HEMOGLOBIN CONCENTRATION / MEAN CORPUSCULAR VOLUME / MONOCYTE / NEUTROPHIL / NUCLEATED RED BLOOD CELLS / PLATELET COUNT: tissue Blood; for ALANINE AMINOTRANSFERASE / ALBUMIN / ALKALINE PHOSPHATASE / ASPARTATE AMINOTRANSFERASE / BLOOD UREA NITROGEN / CARBON DIOXIDE / CHLORIDE / CHOLESTEROL / CREATINE PHOSPHOKINASE / CREATININE / GLUCOSE / LACTATE DEHYDROGENASE / LIPASE / PHOSPHORUS / POTASSIUM / SODIUM / TOTAL BILIRUBIN / TOTAL PROTEIN / URIC ACID: tissue Plasma

Compound: O=P1(NCCCl)OCCCN1CCCl (stereo unspecified) [IFOSFAMIDE]
- ABSOLUTE BASOPHIL (72 h, time 3 day): 0 CELLS/uL
- ABSOLUTE EOSINOPHIL (72 h, time 3 day): 0 CELLS/uL
- ABSOLUTE LYMPHOCYTE (72 h, time 3 day): 7711.33 CELLS/uL
- ABSOLUTE MONOCYTE (72 h, time 3 day): 107 CELLS/uL
- ABSOLUTE SEGMENTED NEUTROPHIL (72 h, time 3 day): 448.33 CELLS/uL
- BASOPHIL (72 h, time 3 day): 0%
- EOSINOPHIL (72 h, time 3 day): 0%
- ERYTHROCYTE COUNT (72 h, time 3 day): 6.17 x10E6/uL
- HEMATOCRIT (72 h, time 3 day): 39.13%
- HEMOGLOBIN (72 h, time 3 day): 15.1 G/DL
- LEUKOCYTE COUNT (72 h, time 3 day): 8.27 x10E3/uL
- LYMPHOCYTE (72 h, time 3 day): 93.33%
- MEAN CORPUSCULAR HEMOGLOBIN (72 h, time 3 day): 24.47 pg
- MEAN CORPUSCULAR HEMOGLOBIN CONCENTRATION (72 h, time 3 day): 38.6 G/DL
- MEAN CORPUSCULAR VOLUME (72 h, time 3 day): 63.47 fL
- MONOCYTE (72 h, time 3 day): 1.33%
- NEUTROPHIL (72 h, time 3 day): 5.33%
- NUCLEATED RED BLOOD CELLS (72 h, time 3 day): 0 /100WBC
- PLATELET COUNT (72 h, time 3 day): 648 x10E3/uL
- ALANINE AMINOTRANSFERASE (72 h, time 3 day): 47.33 u/L
- ALBUMIN (72 h, time 3 day): 4.43 G/DL
- ALKALINE PHOSPHATASE (72 h, time 3 day): 256.67 u/L
- ASPARTATE AMINOTRANSFERASE (72 h, time 3 day): 80.33 u/L
- BLOOD UREA NITROGEN (72 h, time 3 day): 15 mg/dL
- CARBON DIOXIDE (72 h, time 3 day): 38.67 mmol/L
- CHLORIDE (72 h, time 3 day): 95.67 MEQ/L
- CHOLESTEROL (72 h, time 3 day): 85 mg/dL
- CREATINE PHOSPHOKINASE (72 h, time 3 day): 300 u/L
- CREATININE (72 h, time 3 day): 0.31 mg/dL
- GLUCOSE (72 h, time 3 day): 148.67 mg/dL
- LACTATE DEHYDROGENASE (72 h, time 3 day): 171.67 u/L
- LIPASE (72 h, time 3 day): 11.33 u/L
- PHOSPHORUS (72 h, time 3 day): 11.57 mg/dL
- POTASSIUM (72 h, time 3 day): 6.47 MEQ/L
- SODIUM (72 h, time 3 day): 144.97 MEQ/L
- TOTAL BILIRUBIN (72 h, time 3 day): 0.2 mg/dL
- TOTAL PROTEIN (72 h, time 3 day): 6.5 G/DL
- URIC ACID (72 h, time 3 day): 1.23 mg/dL
- ABSOLUTE BASOPHIL (120 h, time 5 day): 0 CELLS/uL
- ABSOLUTE EOSINOPHIL (120 h, time 5 day): 0 CELLS/uL
- ABSOLUTE LYMPHOCYTE (120 h, time 5 day): 4979.67 CELLS/uL
- ABSOLUTE MONOCYTE (120 h, time 5 day): 84.33 CELLS/uL
- ABSOLUTE SEGMENTED NEUTROPHIL (120 h, time 5 day): 269.33 CELLS/uL
- BASOPHIL (120 h, time 5 day): 0%
- EOSINOPHIL (120 h, time 5 day): 0%
- ERYTHROCYTE COUNT (120 h, time 5 day): 5.71 x10E6/uL
- HEMATOCRIT (120 h, time 5 day): 35.77%
- HEMOGLOBIN (120 h, time 5 day): 13.23 G/DL
- LEUKOCYTE COUNT (120 h, time 5 day): 5.33 x10E3/uL
- LYMPHOCYTE (120 h, time 5 day): 93%
- MEAN CORPUSCULAR HEMOGLOBIN (120 h, time 5 day): 23.13 pg
- MEAN CORPUSCULAR HEMOGLOBIN CONCENTRATION (120 h, time 5 day): 37.2 G/DL
- MEAN CORPUSCULAR VOLUME (120 h, time 5 day): 62.3 fL
- MONOCYTE (120 h, time 5 day): 1.67%
- NEUTROPHIL (120 h, time 5 day): 5.33%
- NUCLEATED RED BLOOD CELLS (120 h, time 5 day): 0 /100WBC
- PLATELET COUNT (120 h, time 5 day): 184 x10E3/uL
- ALANINE AMINOTRANSFERASE (120 h, time 5 day): 92.33 u/L
- ALBUMIN (120 h, time 5 day): 4.3 G/DL
- ALKALINE PHOSPHATASE (120 h, time 5 day): 295.33 u/L
- ASPARTATE AMINOTRANSFERASE (120 h, time 5 day): 158.33 u/L
- BLOOD UREA NITROGEN (120 h, time 5 day): 17 mg/dL
- CARBON DIOXIDE (120 h, time 5 day): 38 mmol/L
- CHLORIDE (120 h, time 5 day): 94 MEQ/L
- CHOLESTEROL (120 h, time 5 day): 79.67 mg/dL
- CREATINE PHOSPHOKINASE (120 h, time 5 day): 366 u/L
- CREATININE (120 h, time 5 day): 0.26 mg/dL
- GLUCOSE (120 h, time 5 day): 149.67 mg/dL
- LACTATE DEHYDROGENASE (120 h, time 5 day): 519 u/L
- LIPASE (120 h, time 5 day): 9.67 u/L
- PHOSPHORUS (120 h, time 5 day): 12.83 mg/dL
- POTASSIUM (120 h, time 5 day): 7.12 MEQ/L
- SODIUM (120 h, time 5 day): 144.83 MEQ/L
- TOTAL BILIRUBIN (120 h, time 5 day): 0.17 mg/dL
- TOTAL PROTEIN (120 h, time 5 day): 6.57 G/DL
- URIC ACID (120 h, time 5 day): 1.43 mg/dL
